Results as given in PMC12064818, “A general assay platform to study protein pharmacology using ligand-dependent structural dynamics” (Nature Communications, 2025).

Experiments:
NLuc = target: T1, NLuc (Oplophorus gracilirostris, UniProt Q9GV45, A31E/A60N/A81I/F95D/I117V/K70R/L54V/L99Q/M102K/N193R/P142E/Q151K/Q38R/Q45L/V71I/Y165I); type: biochemical; conditions: ±ATP
T1 construct: His tag (inferred from IMAC purification); made in house; host or cells: E. coli
Summary of the method: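 Test compounds added to 1 nM NLuc in PBS with 0.05% IGEPAL, ± ATP. Nano-Glo reagent added and incubated 10 min before luminescence read.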

[1] = target: FLuc-C-NLuc (firefly luciferase) (Photinus pyralis, UniProt P08659, form not given/L550V); experiment: SDR assay, FLuc-C-NLuc; conditions: for SDR + 10 mM ATP / SDR No ATP: 1 nM FLuc-C-NLuc, normalized activity, Log [Compound]; for SDR+ATP / SDR: Log[Compound]; for SDR+ATP: 10 mM ATP; for SDR: absence of ATP
FLuc-C-NLuc (firefly luciferase), sequence (P08659 2-550 L550V, form open): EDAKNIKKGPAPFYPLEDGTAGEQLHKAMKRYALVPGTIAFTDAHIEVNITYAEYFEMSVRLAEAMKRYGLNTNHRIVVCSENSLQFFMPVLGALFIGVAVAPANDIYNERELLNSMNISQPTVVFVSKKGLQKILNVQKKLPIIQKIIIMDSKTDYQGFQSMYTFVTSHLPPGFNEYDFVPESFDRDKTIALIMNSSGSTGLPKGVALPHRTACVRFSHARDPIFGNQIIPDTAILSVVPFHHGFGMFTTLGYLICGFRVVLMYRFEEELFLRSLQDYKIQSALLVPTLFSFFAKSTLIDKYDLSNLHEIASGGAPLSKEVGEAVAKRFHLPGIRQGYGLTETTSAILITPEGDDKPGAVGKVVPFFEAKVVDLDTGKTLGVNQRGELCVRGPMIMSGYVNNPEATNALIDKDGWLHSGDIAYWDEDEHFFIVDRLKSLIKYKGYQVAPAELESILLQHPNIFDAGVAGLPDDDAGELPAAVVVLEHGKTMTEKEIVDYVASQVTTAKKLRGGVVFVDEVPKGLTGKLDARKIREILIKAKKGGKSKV

T1 sequence (Q9GV45 other isoform, or with tags, fused parts or gaps with the stated changes): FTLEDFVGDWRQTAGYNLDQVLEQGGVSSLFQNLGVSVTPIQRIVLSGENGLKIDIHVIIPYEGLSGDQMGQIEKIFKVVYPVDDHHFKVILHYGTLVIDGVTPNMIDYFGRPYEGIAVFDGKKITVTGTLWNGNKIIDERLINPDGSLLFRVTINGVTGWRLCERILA

Nc1ncnc2c1ncn2[C@@H]1O[C@H](COP(=O)(O)OP(=O)(O)OP(=O)(O)O)[C@@H](O)[C@H]1O [ATP]
effect on NLuc activity (in words) (NLuc): no effect on NLuc activity

CC(CNC(=O)C1CCN(C(=O)c2ncn3c2COC(c2ccccc2)C3)CC1)c1ccccc1 (centres unmarked) [compound 00449795]
SDR + 10 mM ATP ([1]; M -4.48): 34.2
SDR No ATP ([1]; M -4.48): -1.4
SDR + 10 mM ATP ([1]; M -4.96): 33.8
SDR No ATP ([1]; M -4.96): -2.1
SDR + 10 mM ATP ([1]; M -5.44): 30.7
SDR No ATP ([1]; M -5.44): -1.5
SDR + 10 mM ATP ([1]; M -5.91): 28.0
SDR No ATP ([1]; M -5.91): -3.2
SDR + 10 mM ATP ([1]; M -6.39): 22.7
SDR No ATP ([1]; M -6.39): -2.0
SDR + 10 mM ATP ([1]; M -6.87): 5.0
SDR No ATP ([1]; M -6.87): -1.8
SDR + 10 mM ATP ([1]; M -7.35): 2.2
SDR No ATP ([1]; M -7.35): -2.1
SDR + 10 mM ATP ([1]; M -7.82): -0.7
SDR No ATP ([1]; M -7.82): -1.8
SDR + 10 mM ATP ([1]; M -8.30): -0.9
SDR No ATP ([1]; M -8.30): -1.6
SDR + 10 mM ATP ([1]; M -8.78): -2.4
SDR No ATP ([1]; M -8.78): -2.4
Efficacy (%) FLuc-C-NLuc SDR (-ATP) ([1]; - ATP): 0.00%
SDR+ATP ([1]; M -4.48): 68.61
SDR ([1]; M -4.48): 10.53
SDR+ATP ([1]; M -4.96): 61.30
SDR ([1]; M -4.96): 11.57
SDR+ATP ([1]; M -5.44): 53.17
SDR ([1]; M -5.44): 11.00
SDR+ATP ([1]; M -5.91): 34.17
SDR ([1]; M -5.91): 13.65
SDR+ATP ([1]; M -6.39): 20.63
SDR ([1]; M -6.39): 10.99
SDR+ATP ([1]; M -6.87): 11.14
SDR ([1]; M -6.87): 10.66
SDR+ATP ([1]; M -7.35): 7.50
SDR ([1]; M -7.35): 9.25
SDR+ATP ([1]; M -7.82): 9.96
SDR ([1]; M -7.82): 13.35
SDR+ATP ([1]; M -8.30): 8.11
SDR ([1]; M -8.30): 10.95
SDR+ATP ([1]; M -8.78): 7.12
SDR ([1]; M -8.78): 11.55
SDR+ATP ([1]; M -9.25): 7.93
SDR ([1]; M -9.25): 9.61
